One experiment concerns COLO-205. In words: Xenograft model, COLO-205. The format is in vivo, mouse. To be noted: i.p., 12 days. The source says: (§1) In Vivo Anti-Neoplastic (or Anti-Tumour) Effect of HDAC Inhibiting Agents
(§2) The efficacy of the selected compounds of the invention can then be determined using in vivo animal (mouse) xenograft studies. The animal xenograft model is one of the most commonly used in vivo cancer models for studying the pharmaceutically effective dosage, administration route, frequency and interval.
(§3) Athymic nude mice (Female, 5-6 week old, BALB/c, nu/nu, approximately 18-20 g body weight) are obtained from Vital River. The animals are kept on a 12 h light/dark cycle (0700-1900); food and water are provided ad libitum. All in vivo experiments are carried out in a specific pathogen-free facility (22° C.). The human cancer […] transplant model in athymic nude mice is constructed using xenograft cell lines colon cancer cell line colo205, breast cancer cell line MDA-MB435, and lung cancer cell line A549, all obtained from ATCC. Cultured cells are removed from culture plate wall by digestion, collected and suspended in cell culture medium containing no FBS, at a concentration of 5×10^6/0.2 ml, and brought to animal facility on ice. is 0.2 ml cell suspension is given to mice via rear left auxilliary subcutaneous scapular injection, using Size 6 needle. Animals are measured every 2-3 days on the size of tumor formation. After two weeks, those tumors that have been well grown without leak are removed from animals under sterile condition, split into several small fractions (2-3 mm in diameter), and injected s.c. into the rear left auxilliary subcutaneous scapular of animals. […] While the animas being treated, body weight of the animal and size of the tumor are measured every 3 days, with mortality also recorded. […] Tumors are removed, weighed, and measured. […] Tumor-inhibition rate, mortality, as well as relative tumor proliferationrate T/C (%) are calculated. […]
(§4) Significant differences in tumor growth rate were determined by analysis of variance (Table 5).

In another experiment the test system is HDACs. In words: In vitro HDACi assay (BIOMOL fluorescent-based HDAC activity assay). The class given is biochemical. On the procedure: In Vitro HDACi Assay for Determination of IC50 Values
The assay has been carried out in white 96 well formats according to the BIOMOL's method. […] The reaction mixture was incubated at room temperature for 2 hours. Flur de lys Developer was added and the reaction was incubated for 10 min. Briefly, deacetylation of the substrate sensitizes to the developer, which then generates a fluorophore. The fluorophore is excited with 360 nm light and the emitted light (460 nm) is detected on a fluorometric plate reader (Molecular Device Ultra Microplate detection system, MD Group Ltd).
The analytical software, Prism 4.0 (GraphPad Software Inc) has been used to generate IC50 from a series of data.

A further experiment relates to MDA-MB-435. In words: Xenograft model, MDA-MB-435. To be noted: i.p., 15 days. The format is in vivo, mouse.
Description: as §1, §2, §3, §4

In a further experiment the test system is BXPC-3. In words: Cell-based proliferation assay (SRB), BXPC-3. Conditions: Homo sapiens.
The test system of another experiment is HCT116. In words: Cell-based proliferation assay (SRB), HCT116. To be noted: Homo sapiens. How it is done:
Cell-Based Proliferation Assay for Determination of GI50 Values
A rapid multiwell plate assay using Sulforhodamine B (SRB) protein stain was adopted to evaluate the growth inhibitory effects of the compounds of the present invention. The screening panel of cancer cell lines includes Colo205 and HCT116 colon cancer cells, MDA-MB231 and MDA-MB435 chest cancer cells, A549 lung cancer cells, and Chinese hamster ovary cell line CHO, which were obtained from ATCC.
The cell line Colo205 is grown in RPMI 1640 medium containing 2 mM L-glutamine, 5% fetal bovine serum, and 1.0 mM sodium pyruvic acid. Cell lines A549 and MDA-MB231 are grown in RPMI 1640 medium containing 2 mM L-glutamine and 5% fetal bovine serum. The cell line MDA-MB435 is grown in DMEM medium containing 2 mM L-glutamine and 5% fetal bovine serum. The cell lines HCT 116 is grown in IMEM medium containing 2 mM L-glutamine and 5% fetal bovine serum. The CHO cell line, used as a normal control on toxicity, is grown in a special medium for cell line. For a typical screening experiment, A549 and Colo205 cells are inoculated into 96-well microtiter plates, with 100 μL per well, and 2000 and 5000 cells per well respectively for either cell line. MDA-MB435, HCT116, MDA-MB231 and CHO cells are also inoculated into 96-well microtiter plates, with 6000 cells per well. After cell inoculation, the microtiter plates are incubated at 37° C., 5% CO2, and 100% relative humidity for 24 hr in order to make cells adhere to well wall.
After 24 h incubation or time zero for drug addition, with each cell line 50 μl of cold 50% (w/v) TCA is added to wells used for control to fix cells in situ. Also at time zero, cells in other wells are treated with 100 μl of compound of different concentrations for 24 hr, 48 hr, and 72 hr respectively, with varying final compound concentration (0.1 μM, 1 μM, 5 μM 10 μM). For each treatment duration at each compound concentration, there are triplicate wells, as well as an array of control wells including a blank control well (cell culture medium only, no cells), a no-compound control well (adding same volume of cell culture medium but no compound), a positive control well (treated with Suberoylanilide hydroxamic acid (SAHA)), and normal cell well control (CHO cells). Following the addition of compounds, cell plates are incubated for 24 h, 48 h or 72 h per treatment group at 37° C., 5% CO2, and 100% relative humidity. The Treatment is then terminated by addition of cold TCA and incubation of 1 hr at 4° C. The supernatant is discarded, and all wells are washed five times with de-ioned water and air dried. Then each well is added with 100 μl sulforhodamine B (SRB) solution (0.4% (w/v) made in 1% acetic acid) and cell plates are incubated for 20-30 minutes at room temperature. After staining, unbound dye is removed by washing five times with 1% acetic acid and the plates are air dried. Bound stain is subsequently solubilized with 10 mM (200 μL) Tris base with the help of 5 min platform vibration or pipetting up and down, and the absorbance is read on an automated plate reader (M5 detection system, MD Group Ltd.) at a wavelength of 565 nm (calibrated zero reading of blank control at wavelength of 690 nm). The analytical software, XL-fit has been used to generate GI50 from a series of data thus obtained.

[1] abbreviates: Table 3, read-out: IC50 (nM) HDACs.
[2] abbreviates: Table 4, read-out: HDAC enzyme inhibition activity IC50.

From patent publication US8921424B2, “Histone deacetylase inhibitors, process for preparation and uses thereof” (Zhejiang Hisun Pharmaceutical Co. Ltd., priority 2007, dated 2014) come the findings set out here.

Each structure is given as a SMILES string. Where two headings read alike, the source gives them in different places.

A word on the IC50: it is the midpoint of a concentration-inhibition curve. A word on the GI50: it is the concentration at which growth is held to half of that of the control. Lower therefore signals greater sensitivity of the cells.

Take `CCCCCNc1cc(/C=C/C(=O)NO)ccc1SCCN(CC)CC` [Example 2, 3-(4-(2-(diethylamino)ethylthio)-3-(pentylamino)phenyl)-N-hydroxy-acrylamide]: in the experiment with COLO-205 (200 mg/kg), the “T/C(%) COLO-205” value is given as 42% (200,12). Further, the IC50 in the experiment with HDACs (setting [1]) was found to be 21 nM; with HDACs (setting [2]) it was 21000 nM. In addition, the “T/C(%) MDA-MB-435” value in the experiment on MDA-MB-435 (200 mg/kg) is listed as >60% (200,15). The GI50 is 6.89 µM in the experiment on BXPC-3 (BXPC-3, Table 3); 3.99 µM in the experiment with HCT116 (HCT-116, Table 3); 3.99 µM in the experiment on HCT116 (HCT-116, Table 4).
As for `O=C(CCCCCCC(=O)Nc1ccccc1)NO` [SAHA, suberoylanilide hydroxamic acid, reference compound], the “T/C(%) COLO-205” value in the experiment with COLO-205 (80 mg/kg) was >60% (80,12). Further, the “T/C(%) MDA-MB-435” value in the experiment with MDA-MB-435 (80 mg/kg) was >60% (80,15). In addition, the GI50 with BXPC-3 (BXPC-3, Table 3) stood at 5.68 µM; in the experiment on HCT116 (HCT-116, Table 3), 1.52 µM.
Turning to `CCCCc1nc2cc(/C=C/C(=O)NO)ccc2n1CCN(CC)CC` [SB939, reference compound], the “T/C(%) COLO-205” value with COLO-205 (30 mg/kg) is on record as 55% (30,12). Moreover, the figures for the IC50 with HDACs (setting [1]) and in the experiment with HDACs (setting [2]) were 18 nM and 18000 nM, respectively. The “T/C(%) MDA-MB-435” value with MDA-MB-435 (30 mg/kg) was 58% (30,15). The GI50 in the experiment on BXPC-3 (BXPC-3, Table 3) turned out to be 6.78 µM; with BXPC-3 (BXPC-3, Table 4) it was 6.78 µM; in the experiment on HCT116 (HCT-116, Table 3) it was 1.35 µM.
